Test results reported in ChEMBL document CHEMBL3407372, “Photodynamic effects induced by meso-tris(pentafluorophenyl)corrole and its cyclodextrin conjugates on cytoskeletal components of HeLa cells” (Eur J Med Chem, 2015).
Calls of active or inactive are those of the source. The rule behind the calls is not given here.

How the values were obtained:
HeLa [1] = assay: Phototoxicity against human HeLa cells assessed as abnormalities in chromosome disposition in metaphase plate at LD20 concentration incubated 24 hrs under 12 J/cm'2 red light with irradiance of 5 mW/cm'2 by immunofluorescence staining; type: functional, cell-based
HeLa [2] = assay: Phototoxicity against human HeLa cells assessed as survival fraction at 1x10'-5 M incubated 24 hrs under 9 J/cm'2 red light with irradiance of 5 mW/cm'2 by MTT assay; type: functional; conditions: light or radiation study, read-out: Survival
HeLa [3] = assay: Cytotoxicity against human HeLa cells assessed as survival fraction at 1x10'-7 M incubated 24 hrs in dark by MTT assay; type: functional; conditions: read-out: Survival
HeLa [4] = assay: Phototoxicity against human HeLa cells assessed as lethality rate at 1x10'-5 M incubated 24 hrs under 6 J/cm'2 red light with irradiance of 5 mW/cm'2 by MTT assay; type: functional
HeLa [5] = assay: Phototoxicity against human HeLa cells assessed as lethality rate at 1x10'-5 M incubated 24 hrs under 3 J/cm'2 red light with irradiance of 5 mW/cm'2 by MTT assay; type: functional; conditions: light or radiation study
HeLa [6] = assay: Drug uptake in human HeLa cells assessed as golgi apparatus at 1x10'-5 M incubated 24 hrs by mitotracker green; type: ADME, cell-based; conditions: 10 µM
HeLa [7] = assay: Phototoxicity against human HeLa cells assessed as changes in microtubular organization at LD20 concentration incubated 24 hrs under 12 J/cm'2 red light with irradiance of 5 mW/cm'2 by immunofluorescence staining; type: functional, cell-based
HeLa [8] = assay: Drug uptake in human HeLa cells assessed as nucleus at 1x10'-5 M incubated 24 hrs by red emission under fluorescence microscopy; type: ADME, cell-based; conditions: 10 µM
HeLa [9] = assay: Phototoxicity against human HeLa cells assessed as survival fraction at 1x10'-5 M incubated 24 hrs under 12 J/cm'2 red light with irradiance of 5 mW/cm'2 by MTT assay; type: functional; conditions: light or radiation study, read-out: Survival
HeLa [10] = assay: Phototoxicity against human HeLa cells assessed as survival fraction at 1x10'-5 M incubated 24 hrs under 6 J/cm'2 red light with irradiance of 5 mW/cm'2 by MTT assay; type: functional; conditions: light or radiation study, read-out: Survival
HeLa [11] = assay: Phototoxicity against human HeLa cells assessed as survival fraction at 1x10'-7 M incubated 24 hrs under 3 J/cm'2 red light with irradiance of 5 mW/cm'2 by MTT assay; type: functional; conditions: light or radiation study, read-out: Survival
HeLa [12] = assay: Cytotoxicity against human HeLa cells assessed as survival fraction at 1x10'-5 M incubated 24 hrs in dark by MTT assay; type: functional; conditions: read-out: Survival
HeLa [13] = assay: Phototoxicity against human HeLa cells assessed as survival fraction at 1x10'-7 M incubated 24 hrs under 9 J/cm'2 red light with irradiance of 5 mW/cm'2 by MTT assay; type: functional; conditions: light or radiation study, read-out: Survival
HeLa [14] = assay: Phototoxicity against human HeLa cells assessed as survival fraction at 1x10'-7 M incubated 24 hrs under 6 J/cm'2 red light with irradiance of 5 mW/cm'2 by MTT assay; type: functional; conditions: light or radiation study, read-out: Survival
HeLa [15] = assay: Phototoxicity against human HeLa cells assessed as survival fraction at 1x10'-5 M incubated 24 hrs under 3 J/cm'2 red light with irradiance of 5 mW/cm'2 by MTT assay; type: functional; conditions: light or radiation study, read-out: Survival
HeLa [16] = assay: Cytotoxicity against human HeLa cells assessed as survival fraction at 1x10'-4 M incubated 24 hrs in dark by MTT assay; type: functional; conditions: read-out: Survival
HeLa [17] = assay: Phototoxicity against human HeLa cells assessed as survival fraction at 1x10'-4 M incubated 24 hrs under 12 J/cm'2 red light with irradiance of 5 mW/cm'2 by MTT assay; type: functional; conditions: light or radiation study, read-out: Survival
HeLa [18] = assay: Phototoxicity against human HeLa cells assessed as survival fraction at 1x10'-4 M incubated 24 hrs under 9 J/cm'2 red light with irradiance of 5 mW/cm'2 by MTT assay; type: functional; conditions: light or radiation study, read-out: Survival
HeLa [19] = assay: Phototoxicity against human HeLa cells assessed as survival fraction at 1x10'-4 M incubated 24 hrs under 6 J/cm'2 red light with irradiance of 5 mW/cm'2 by MTT assay; type: functional; conditions: light or radiation study, read-out: Survival
HeLa [20] = assay: Phototoxicity against human HeLa cells assessed as abnormalities in chromosome disposition in metaphase plate at LD70 concentration incubated 24 hrs under 12 J/cm'2 red light with irradiance of 5 mW/cm'2 by immunofluorescence staining; type: functional, cell-based
HeLa [21] = assay: Drug uptake in human HeLa cells assessed as filamentous pattern of mitochondria at 1x10'-5 M incubated 24 hrs by mitotracker green; type: ADME, cell-based; conditions: 10 µM
HeLa [22] = assay: Drug uptake in human HeLa cells assessed as located in cytoplasm at 1x10'-5 M incubated 24 hrs by red emission under fluorescence microscopy; type: ADME, cell-based; conditions: 10 µM
HeLa [23] = assay: Drug uptake in human HeLa cells assessed as lysosomes at 1x10'-5 M incubated 24 hrs by acridine orange staining; type: ADME, cell-based; conditions: 10 µM
HeLa [24] = assay: Phototoxicity against human HeLa cells assessed as lethality rate at 1x10'-5 M incubated 24 hrs under 9 J/cm'2 red light with irradiance of 5 mW/cm'2 by MTT assay; type: functional
HeLa [25] = assay: Drug uptake in human HeLa cells assessed as located in granules at 1x10'-5 M incubated 24 hrs by red emission under fluorescence microscopy; type: ADME, cell-based; conditions: 10 µM
HeLa [26] = assay: Phototoxicity against human HeLa cells assessed as changes in microtubular organization at LD70 concentration incubated 24 hrs under 12 J/cm'2 red light with irradiance of 5 mW/cm'2 by immunofluorescence staining; type: functional, cell-based
HeLa [27] = assay: Drug uptake in human HeLa cells assessed as juxtanuclear portion at 1x10'-5 M incubated 24 hrs by ceramide; type: ADME, cell-based; conditions: 10 µM

## OC[C@H]1O[C@@H]2O[C@H]3O[C@H](COc4c(F)c(F)c(-c5c6ccc([nH]6)c(-c6c(F)c(F)c(F)c(F)c6F)c6nc(c(-c7c(F)c(F)c(F)c(F)c7F)c7ccc([nH]7)c7ccc5[nH]7)C=C6)c(F)c4F)[C@@H](O[C@H]4[C@H](O)[C@@H](O)[C@@H](O[C@H]5[C@H](O)[C@@H](O)[C@@H](O[C@H]6[C@H](O)[C@@H](O)[C@@H](O[C@H]7[C@@H](O)[C@@H](O)[C@@H](O[C@H]8[C@H](O)[C@@H](O)[C@@H](O[C@H]1[C@H](O)[C@H]2O)O[C@@H]8CO)O[C@@H]7CO)O[C@@H]6CO)O[C@@H]5CO)O[C@@H]4CO)[C@H](O)[C@H]3O
HeLa [1]
  Activity: Active
HeLa [2]
  viability at 10 µM: 81.6%
HeLa [3]
  viability at 0.1 µM: 113%
HeLa [4]
  Activity: 22%
HeLa [5]
  inhibition at 10 µM: 20%
HeLa [6]
  Drug uptake: Active
HeLa [7]
  Activity: Active
HeLa [8]
  Drug uptake: Active
HeLa [9]
  viability at 10 µM: 81.6%
HeLa [10]
  viability at 10 µM: 95.6%
HeLa [11]
  viability at 0.1 µM: 92%
HeLa [12]
  viability at 10 µM: 162%
HeLa [13]
  viability at 0.1 µM: 90.1%
HeLa [14]
  viability at 0.1 µM: 80.2%
HeLa [15]
  viability at 10 µM: 93.6%

## OC[C@H]1O[C@@H]2O[C@H]3O[C@H](COc4c(F)c(F)c(-c5c6nc(c(-c7c(F)c(F)c(F)c(F)c7F)c7ccc([nH]7)c(-c7c(F)c(F)c(OC[C@H]8O[C@@H]9O[C@H]%10O[C@H](CO)[C@@H](O[C@H]%11O[C@H](CO)[C@@H](O[C@H]%12O[C@H](CO)[C@@H](O[C@H]%13O[C@H](CO)[C@@H](O[C@H]%14O[C@H](CO)[C@@H](O[C@H]%15O[C@H](CO)[C@@H](O[C@H]8[C@H](O)[C@H]9O)[C@H](O)[C@H]%15O)[C@H](O)[C@H]%14O)[C@H](O)[C@H]%13O)[C@@H](O)[C@H]%12O)[C@H](O)[C@H]%11O)[C@H](O)[C@H]%10O)c(F)c7F)c7ccc([nH]7)c7ccc5[nH]7)C=C6)c(F)c4F)[C@@H](O[C@H]4[C@H](O)[C@@H](O)[C@@H](O[C@H]5[C@H](O)[C@@H](O)[C@@H](O[C@H]6[C@H](O)[C@@H](O)[C@@H](O[C@H]7[C@@H](O)[C@@H](O)[C@@H](O[C@H]8[C@H](O)[C@@H](O)[C@@H](O[C@H]1[C@H](O)[C@H]2O)O[C@@H]8CO)O[C@@H]7CO)O[C@@H]6CO)O[C@@H]5CO)O[C@@H]4CO)[C@H](O)[C@H]3O
HeLa [16]
  viability at 100 µM: 86%
HeLa [2]
  viability at 10 µM: 111%
HeLa [17]
  viability at 100 µM: 57.6%
HeLa [9]
  viability at 10 µM: 57.6%
HeLa [18]
  viability at 100 µM: 85%
HeLa [10]
  viability at 10 µM: 121%
HeLa [19]
  viability at 100 µM: 86%
HeLa [12]
  viability at 10 µM: 121%

## Fc1c(F)c(F)c(-c2c3nc(c(-c4c(F)c(F)c(F)c(F)c4F)c4ccc([nH]4)c4ccc([nH]4)c(-c4c(F)c(F)c(F)c(F)c4F)c4ccc2[nH]4)C=C3)c(F)c1F
HeLa [20]
  Activity: Active
HeLa [21]
  Drug uptake: Active
HeLa [16]
  viability at 100 µM: 117%
HeLa [22]
  Drug uptake: Active
HeLa [2]
  viability at 10 µM: 44.5%
HeLa [23]
  Drug uptake: Active
HeLa [24]
  Activity: 70%
HeLa [25]
  Drug uptake: Active
HeLa [9]
  viability at 10 µM: 38.5%
HeLa [10]
  viability at 10 µM: 80.9%
HeLa [12]
  viability at 10 µM: 108%
HeLa [26]
  Activity: Active
HeLa [15]
  viability at 10 µM: 104%
HeLa [27]
  Drug uptake: Active
